Test results published in US12577231B2, “Androgen receptor PROTACS” (GlaxoSmithKline Intellectual Property Development Limited, priority 2023, dated 2026).
Where a chain is given by its changes, count along the chain named.

Tests used:
[1] = target: T1, Androgen Receptor, MDA-PCa-2b (AR T878A/L702H) (Homo sapiens, UniProt P10275, L702H/T878A); test: Androgen Receptor Degradation-Imaging Assay, MDA-PCa-2b cell line; type: cell-based; conditions: 16 hours treatment, maximum observed degradation
T1 construct: host or cells: MDA-PCa-2b
T1 sequence (P10275 1-920 L702H/T878A): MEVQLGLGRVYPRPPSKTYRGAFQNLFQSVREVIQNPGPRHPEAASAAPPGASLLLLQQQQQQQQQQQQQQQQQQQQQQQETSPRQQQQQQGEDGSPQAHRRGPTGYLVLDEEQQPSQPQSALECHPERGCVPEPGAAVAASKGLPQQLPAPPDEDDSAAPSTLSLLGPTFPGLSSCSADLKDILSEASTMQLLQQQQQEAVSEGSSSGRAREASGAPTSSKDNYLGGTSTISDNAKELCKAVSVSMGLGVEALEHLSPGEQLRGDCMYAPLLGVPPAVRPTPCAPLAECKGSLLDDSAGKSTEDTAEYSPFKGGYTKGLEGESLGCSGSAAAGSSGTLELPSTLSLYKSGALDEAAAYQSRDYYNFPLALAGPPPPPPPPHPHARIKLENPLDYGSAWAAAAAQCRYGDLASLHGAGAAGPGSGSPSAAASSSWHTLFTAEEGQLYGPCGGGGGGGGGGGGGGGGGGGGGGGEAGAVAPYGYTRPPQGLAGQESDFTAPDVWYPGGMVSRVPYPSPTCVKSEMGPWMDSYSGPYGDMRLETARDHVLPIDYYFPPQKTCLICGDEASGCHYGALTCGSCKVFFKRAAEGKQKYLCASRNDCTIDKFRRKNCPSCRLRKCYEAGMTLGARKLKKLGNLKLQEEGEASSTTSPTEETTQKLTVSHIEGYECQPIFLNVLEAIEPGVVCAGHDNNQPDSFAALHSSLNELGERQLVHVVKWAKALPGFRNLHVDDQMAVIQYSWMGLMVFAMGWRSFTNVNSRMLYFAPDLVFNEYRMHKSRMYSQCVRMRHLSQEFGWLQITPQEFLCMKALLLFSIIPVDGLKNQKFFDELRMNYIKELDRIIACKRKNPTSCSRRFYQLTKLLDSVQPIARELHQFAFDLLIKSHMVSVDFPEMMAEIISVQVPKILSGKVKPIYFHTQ
Procedure: (§1) Degradation of Androgen Receptor (AR) protein in human prostate cancer cell lines (MDA-PCa-2b (AR T878A/L702H), LNCaP (AR T878A), VCaP (AR wild type and amplified) 22RV1 (AR H875Y) and PC3 (AR negative control)) treated with AR PROTACs was quantified using immunofluorescence. Prostate cancer cells were plated (MDA-PCa-2b, and VCaP 16,000 cells/well; LNCaP and 22RV1 32,000 cells/well, and PC3 8,000 cells/well) in an optical bottom 96-well cell culture plate and allowed to attach overnight. The prostate cancer cell lines were treated for 16 hours with a 10-point 3-fold dilution series (dose range=0.02 nM to 333 nM). PC3 is included as an AR negative control and not treated with compound. Cells are fixed and permeabilized with 4% formaldehyde, blocked with 10% goat serum in immunofluorescence (IF) buffer (130 mM NaCl, 7 mM Na2HPO4, 3.5 mM NaH2PO4, 7.7 mM NaN3, 0.1% BSA, 0.2% Triton X, 0.05% Tween 20) prior to overnight incubation with rabbit antibody specific for C terminus of AR (commercially available from RevMaB Biosciences). Following washes with IF buffer, cells were incubated with fluorescent secondary antibody (Goat anti-rabbit Alexa 647; commercially available from Invitrogen) and Hoechst nuclear stain (commercially available from Themo Scientific) prior to quantification of nuclear AR levels via Opera Phenix high-content fluorescent imager using a 40× water objective. Image analysis was performed with Harmony software.
(§2) The averaged nuclear Alexa 647 median fluorescence intensity (MFI) of PC3 cells is subtracted from the nuclear Alexa 647 MFI of PROTAC treated and DMSO control treated cells. % AR remaining is calculated for PROTAC treatments as a percent of the DMSO control (MFI PROTAC treated/MFI DMSO control treated)*100). DC50 and the Dmax values, were obtained from these normalised values fitted with a 4-parameter sigmoidal response curve (Xlfit software). The DC50 is the interpolated concentration of PROTAC corresponding to 50% of the protein being degraded, and the Dmax parameter is the maximum experimentally observed degradation.

[2] = target: T2, Androgen Receptor, VCaP (AR wild type and amplified) (Homo sapiens, UniProt P10275); test: Androgen Receptor Degradation-Imaging Assay, VCaP cell line; type: cell-based; conditions: 16 hours treatment, maximum observed degradation
T2 construct: endogenous in cells; host or cells: VCaP
T2 sequence (P10275 1-920): T1 sequence (P10275 1-920 L702H/T878A) with H702L, A878T
Procedure: as §1, §2

| Dmax [1] [%] | Dmax [2] [%] | SMILES |
| --- | --- | --- |
| ≥ 80 | ≥ 80 | CC1(C)[C@H](NC(=O)c2ccc(N3CCC(CN4CCC(n5ccc6c(N7CCC(=O)NC7=O)ncnc65)CC4)CC3)cc2)C(C)(C)[C@H]1Oc1ccc(C#N)c2ncccc12 [Example 28, N-((1r,3r)-3-((8-Cyanoquinolin-5-yl)oxy)-2,2,4,4-tetramethylcyclobutyl)-4-(4-((4-(4-(2,4-dioxotetrahydropyrimidin-1(2H)-yl)-7H-pyrrolo[2,3-d]pyrimidin-7-yl)piperidin-1-yl)methyl)piperidin-1-yl)benzamide] |
| ≥ 80 | ≥ 80 | CC1(C)[C@H](NC(=O)c2cc(F)c(N3CCC(CN4CCC(n5ncc6c(N7CCC(=O)NC7=O)cccc65)CC4)CC3)c(F)c2)C(C)(C)[C@H]1Oc1ccc(C#N)c2ncccc12 [Example 30, N-((1r,3r)-3-((8-Cyanoquinolin-5-yl)oxy)-2,2,4,4-tetramethylcyclobutyl)-4-(4-((4-(4-(2,4-dioxotetrahydropyrimidin-1(2H)-yl)-1H-indazol-1-yl)piperidin-1-yl)methyl)piperidin-1-yl)-3,5-difluorobenzamide] |
| ≥ 80 | ≥ 80 | CC1(C)[C@H](NC(=O)c2ccc(N3CCC(CN4CCC(n5ccc6c(N7CCC(=O)NC7=O)cccc65)CC4)CC3)c(F)c2)C(C)(C)[C@H]1Oc1ccc(C#N)c2ncccc12 [Example 31, N-((1r,3r)-3-((8-Cyanoquinolin-5-yl)oxy)-2,2,4,4-tetramethylcyclobutyl)-4-(4-((4-(4-(2,4-dioxotetrahydropyrimidin-1(2H)-yl)-1H-indol-1-yl)piperidin-1-yl)methyl)piperidin-1-yl)-3-fluorobenzamide] |
| ≥ 80 | ≥ 80 | CC1(C)[C@H](NC(=O)c2ccc(N3CCC(CN4CCC(n5ccc6c(N7CCC(=O)NC7=O)cc(F)cc65)CC4)CC3)c(F)c2)C(C)(C)[C@H]1Oc1ccc(C#N)c2ncccc12 [Example 32, N-((1r,3r)-3-((8-Cyanoquinolin-5-yl)oxy)-2,2,4,4-tetramethylcyclobutyl)-4-(4-((4-(4-(2,4-dioxotetrahydropyrimidin-1(2H)-yl)-6-fluoro-1H-indol-1-yl)piperidin-1-yl)methyl)piperidin-1-yl)-3-fluorobenzamide] |

The remaining lines, values behind:

| SMILES | Dmax [1] [%] | Dmax [2] [%] |
| --- | --- | --- |
| COc1c(C#N)ccc(O[C@H]2C(C)(C)[C@H](NC(=O)c3ccc(N4CCC(CN5CCC(n6ncc7c(N8CCC(=O)NC8=O)cccc76)CC5)CC4)c(F)c3)C2(C)C)c1C [Example 5, N-((1r,3r)-3-(4-Cyano-3-methoxy-2-methylphenoxy)-2,2,4,4-tetramethylcyclobutyl)-4-(4-((4-(4-(2,4-dioxotetrahydropyrimidin-1(2H)-yl)-1H-indazol-1-yl)piperidin-1-yl)methyl)piperidin-1-yl)-3-fluorobenzamide] | ≥ 80 | ≥ 80 |
| CC1(C)[C@H](NC(=O)c2ccc(N3CCC(CN4CCC(n5ncc6c(N7CCC(=O)NC7=O)cccc65)CC4)CC3)c(F)c2)C(C)(C)[C@H]1Oc1ccc(C#N)c2ncccc12 [Example 6, N-((1r,3r)-3-((8-Cyanoquinolin-5-yl)oxy)-2,2,4,4-tetramethylcyclobutyl)-4-(4-((4-(4-(2,4-dioxotetrahydropyrimidin-1(2H)-yl)-1H-indazol-1-yl)piperidin-1-yl)methyl)piperidin-1-yl)-3-fluorobenzamide] | ≥ 80 | ≥ 80 |
| CC1(C)[C@H](NC(=O)c2ccc(N3CCC(CN4CCC(n5ncc6c(N7CCC(=O)NC7=O)cccc65)CC4)CC3)c(F)c2)C(C)(C)[C@H]1Oc1ccc(C#N)c2c1CCCO2 [Example 8, N-((1r,3r)-3-((8-Cyanochroman-5-yl)oxy)-2,2,4,4-tetramethylcyclobutyl)-4-(4-((4-(4-(2,4-dioxotetrahydropyrimidin-1(2H)-yl)-1H-indazol-1-yl)piperidin-1-yl)methyl)piperidin-1-yl)-3-fluorobenzamide] | ≥ 80 | ≥ 80 |
| COc1cc(O[C@H]2C(C)(C)[C@H](NC(=O)c3ccc(N4CCC(CN5CCC(n6ncc7c(N8CCC(=O)NC8=O)cccc76)CC5)CC4)cc3)C2(C)C)ccc1C#N [Example 15, N-((1r,3r)-3-(4-Cyano-3-methoxyphenoxy)-2,2,4,4-tetramethylcyclobutyl)-4-(4-((4-(4-(2,4-dioxotetrahydropyrimidin-1(2H)-yl)-1H-indazol-1-yl)piperidin-1-yl)methyl)piperidin-1-yl)benzamide] | ≥ 80 | ≥ 80 |
| COc1cc(O[C@H]2C(C)(C)[C@H](NC(=O)c3ccc(N4CCC(CN5CCC(n6ccc7c(N8CCC(=O)NC8=O)cccc76)CC5)CC4)cc3)C2(C)C)ccc1C#N [Example 16, N-((1r,3r)-3-(4-Cyano-3-methoxyphenoxy)-2,2,4,4-tetramethylcyclobutyl)-4-(4-((4-(4-(2,4-dioxotetrahydropyrimidin-1(2H)-yl)-1H-indol-1-yl)piperidin-1-yl)methyl)piperidin-1-yl)benzamide] | ≥ 80 | ≥ 80 |
| COc1cc(O[C@H]2C(C)(C)[C@H](NC(=O)c3ccc(N4CCC(CN5CCC(n6ncc7c(N8CCC(=O)NC8=O)nccc76)CC5)CC4)c(F)c3)C2(C)C)ccc1C#N [Example 20, N-((1r,3r)-3-(4-Cyano-3-methoxyphenoxy)-2,2,4,4-tetramethylcyclobutyl)-4-(4-((4-(4-(2,4-dioxotetrahydropyrimidin-1(2H)-yl)-1H-pyrazolo[4,3-c]pyridin-1-yl)piperidin-1-yl)methyl)piperidin-1-yl)-3-fluorobenzamide] | ≥ 80 | ≥ 80 |
